Reference: patent US9265773B2, “Tetracyclic heterocycle compounds and methods of use thereof for the treatment of viral diseases” (priority 2011, dated 2016)

Tests used:
HCV replicon genotype 1a = test: microbe, parasite or virus in culture; assay type: cell-based; details: Hepatitis C virus, 96 h, genotype 1a replicon cells, incubated 96 hours, NS3/4A ELISA readout
HCV replicon genotype 1b = test: microbe, parasite or virus in culture; assay type: cell-based; details: Hepatitis C virus, 96 h, genotype 1b replicon cells, incubated 96 hours, NS3/4A ELISA readout

Structure (SMILES)	IC50 (HCV replicon genotype 1a)	IC50 (HCV replicon genotype 1b)
CNC(=O)c1c(-c2ccc(F)cc2)oc2cc(N(C)S(C)(=O)=O)c(-c3ccc4c(c3)-c3c(Cl)c5ccccc5n3C(C3CC3)O4)cc12 (stereo not shown) [Compound 131, 5-(12-chloro-6-cyclopropyl-6H-benzo[5,6][1,3]oxazino[3,4-a]indol-2-yl)-2-(4-fluorophenyl)-N-methyl-6-(N-methylmethylsulfonamido)benzofuran-3-carboxamide]	79 nM	50 nM
CNC(=O)c1c(-c2ccc(F)cc2)oc2cc(N(C)S(C)(=O)=O)c(-c3ccc4c(c3)-c3cc5ccccc5n3C(C3CC3)O4)cc12 (stereo not shown) [Compound 132]	4.8 nM	7.9 nM
CNC(=O)c1c(-c2ccc(F)cc2)oc2cc(N(C)S(C)(=O)=O)c(-c3ccc4c(c3)-c3nc5ccccc5n3CO4)cc12 [Compound 133, 5-(6H-benzo[e]benzo[4,5]imidazo[1,2-c][1,3]oxazin-2-yl)-2-(4-fluorophenyl)-N-methyl-6-(N-methylmethylsulfonamido)benzofuran-3-carboxamide]	2.6 nM	3.2 nM
CNC(=O)c1c(-c2ccc(F)cc2)oc2cc(N(C)S(C)(=O)=O)c(-c3ccc4c(c3)-c3nc5cccc(F)c5n3CO4)cc12 [Compound 134]	4 nM	2.9 nM
CNC(=O)c1c(-c2ccc(F)cc2)oc2cc(N(C)S(C)(=O)=O)c(-c3ccc4c(c3)-c3nc5cccnc5n3CO4)cc12 [Compound 135]	2.4 nM	2.4 nM
CNC(=O)c1c(-c2ccc(F)cc2)oc2cc(N(C)S(C)(=O)=O)c(-c3ccc4c(n3)-c3nc5ccccc5n3CO4)cc12 [Compound 136]	3.5 nM	2.9 nM
CNC(=O)c1c(-c2ccc(F)cc2)oc2cc(N(C)S(C)(=O)=O)c(-c3ccc4c(n3)-c3nc5cccnc5n3CO4)cc12 [Compound 137]	44 nM	7.9 nM
CNC(=O)c1c(-c2ccc(F)cc2)oc2cc(N(C)S(C)(=O)=O)c(-c3cc4c(cn3)OCn3c-4nc4cccnc43)cc12 [Compound 138]	62 nM	19 nM
CNC(=O)c1c(-c2ccc(F)cc2)oc2cc(N(C)S(C)(=O)=O)c(-c3ccc4c(n3)-c3nc5c(F)cccc5n3CO4)cc12 [Compound 139]	1.9 nM	1.9 nM
CNC(=O)c1c(-c2ccc(F)cc2)oc2cc(N(C)S(C)(=O)=O)c(-c3ccc4c(n3)-c3nc5cccc(F)c5n3CO4)cc12 [Compound 140]	7.9 nM	5.9 nM
CNC(=O)c1c(-c2ccc(F)cc2)oc2cc(N(C)S(C)(=O)=O)c(-c3cnc4c(c3)-c3nc5c(n3CO4)CCCC5)cc12 [Compound 141, 2-(4-fluorophenyl)-N-methyl-6-(N-methylmethylsulfonamido)-5-(8,9,10,11-tetrahydro-6H-benzo[4,5]imidazo[1,2-c]pyrido[3,2-e][1,3]oxazin-2-yl)benzofuran-3-carboxamide]	2.4 nM	2.4 nM
CNC(=O)c1c(-c2ccc(F)cc2)oc2cc(N(C)S(C)(=O)=O)c(-c3ccc4c(c3)-c3nc5ccccn5c3CO4)cc12 [Compound 142, 5-(6H-chromeno[4′,3′:4,5]imidazo[1,2-a]pyridin-2-yl)-2-(4-fluorophenyl)-N-methyl-6-(N-methylmethylsulfonamido)benzofuran-3-carboxamide]	4.1 nM	4 nM
CNC(=O)c1c(-c2ccc(F)cc2)oc2cc(N(C)S(C)(=O)=O)c(-c3ccc4c(c3)-c3nc5ccc(F)cn5c3CO4)cc12 [Compound 143]	15 nM	8 nM
CNC(=O)c1c(-c2ccc(F)cc2)oc2cc(N(C)S(C)(=O)=O)c(-c3cnc4c(c3)-c3nc5ccccn5c3CO4)cc12 [Compound 144, 2-(4-fluorophenyl)-N-methyl-6-[methyl(methylsulfonyl)amino]-5-(6H pyrido[1″,2″:1′,2′]imidazo[4′,5′:4,5]pyrano[2,3-b]pyridin-2-yl)-1-benzofuran-3-carboxamide]	2.9 nM	1.9 nM
CNC(=O)c1c(-c2ccc(F)cc2)oc2cc(N(C)S(C)(=O)=O)c(-c3ccc4c(c3)-c3nc5ccccn5c3CCO4)cc12 [Compound 145, 5-(6,7-dihydrobenzo[2′,3′]oxepino[4′,5′:4,5]imidazo[1,2-a]pyridin-2-yl)-2-(4-fluorophenyl)-N-methyl-6-(N-methylmethylsulfonamido)benzofuran-3-carboxamide]	5.3 nM	2.7 nM
CNC(=O)c1c(-c2ccc(F)cc2)oc2cc(N(C)S(C)(=O)=O)c(-c3ccc4c(n3)-c3nn5ccccc5c3CO4)cc12 [Compound 146, 2-(4-fluorophenyl)-N-methyl-5-(1-aza-6H-chromeno[4′,3′:3,4]pyrazolo[1,5-a]pyridin-2-yl)-6-(N-methylmethylsulfonamido)benzofuran-3-carboxamide]	225 nM	37 nM
CNC(=O)c1c(-c2ccc(F)cc2F)oc2cc(N(C)S(C)(=O)=O)c(-c3ccc4c(n3)-c3cc5c(F)cccc5n3CO4)cc12 [Compound 147, 2-(2,4-difluorophenyl)-5-(11-fluoro-6H-pyrido[2′,3′:5,6][1,3]oxazino[3,4-a]indol-2-yl)-N-methyl-6-(N-methylmethylsulfonamido)benzofuran-3-carboxamide]	9 nM	6.9 nM
CNC(=O)c1c(-c2ccc(F)cc2F)oc2cc(N(C)S(C)(=O)=O)c(-c3ccc4c(n3)-c3cc5ccccc5n3CO4)cc12 [Compound 148]	2.8 nM	4.6 nM
CNC(=O)c1c(-c2ccc(F)cc2F)oc2cc(N(C)S(C)(=O)=O)c(-c3ncc4c(n3)-c3cc5c(F)cccc5n3CO4)cc12 [Compound 149]	1.2 nM	2.2 nM
COC(=O)c1c(-c2ccc(F)cc2)oc2cc(N(C)S(C)(=O)=O)c(-c3ccc4c(n3)-c3cc5c(F)cccc5n3CO4)cc12 [Compound 150, methyl 5-(11-fluoro-6H-pyrido[2′,3′:5,6][1,3]oxazino[3,4-a]indol-2-yl)-2-(4-fluorophenyl)-6-(N-methylmethylsulfonamido)benzofuran-3-carboxylate]	38 nM	30 nM
CN(c1cc2oc(-c3ccc(F)cc3)c(C(=O)NCCO)c2cc1-c1ccc2c(n1)-c1cc3c(F)cccc3n1CO2)S(C)(=O)=O [Compound 151, 5-(11-fluoro-6H-pyrido[2′,3′:5,6][1,3]oxazino[3,4-a]indol-2-yl)-2-(4-fluorophenyl)-N-(2-hydroxyethyl)-6-(N-methylmethylsulfonamido)benzofuran-3-carboxamide]	4.3 nM	5.9 nM
CN(c1cc2oc(-c3ccc(F)cc3)c(C(=O)NC3COC3)c2cc1-c1ccc2c(n1)-c1cc3c(F)cccc3n1CO2)S(C)(=O)=O [Compound 152]	14 nM	15 nM
CONC(=O)c1c(-c2ccc(F)cc2)oc2cc(N(C)S(C)(=O)=O)c(-c3ccc4c(n3)-c3cc5c(F)cccc5n3CO4)cc12 [Compound 153]	2.5 nM	4.9 nM
CN(c1cc2oc(-c3ccc(F)cc3)c(C(N)=O)c2cc1-c1ccc2c(n1)-c1cc3c(F)cccc3n1CO2)S(C)(=O)=O [Compound 154]	2.7 nM	2.2 nM
CN(O)C(=O)c1c(-c2ccc(F)cc2)oc2cc(N(C)S(C)(=O)=O)c(-c3ccc4c(n3)-c3cc5c(F)cccc5n3CO4)cc12 [Compound 155]	7 nM	17 nM
CCNC(=O)c1c(-c2ccc(F)cc2)oc2cc(N(C)S(C)(=O)=O)c(-c3ccc4c(n3)-c3cc5c(F)cccc5n3CO4)cc12 [Compound 156]	2.3 nM	2.9 nM
